# Assay results as given in patent publication US11273201B2, “Compositions and methods for inducing thrombopoiesis” (Hadasit Medical Research Services and Development Ltd., priority 2013, dated 2022).
# B1: wild-type Livin: Livin β (SEQ ID NO: 5 cDNA) over-expressed from pWZL IRES-blasticidin retroviral vector (protein, listed as Homo sapiens)
# chain: MGPKDSAKCLHRGPQPSHWAAGDGPTQERCGPRSLGSPVLGLDTCRAWDHVDGQILGQLRPLTEEEEEEGAGATLSRGPAFPGMGSEELRLASFYDWPLTAEVPPELLAAAGFFHTGHQDKVRCFFCYGGLQSWKRGDDPWTEHAKWFPSCQFLLRSKGRDFVHSVQETHSQLLGSWDPWEEPEDAAPVAPSVPASGYPELPTPRREVQSESAQEPGARDVEAQLRRLQEERTCKVCLDRAVSIVFVPCGHLVCAECAPGLQLCPICRAPVRSRVRTFLS
# Assays:
# LAMA-84 cells [1] = test: Release of CD41+ platelet-like particles from LAMA-84 cultures (flow cytometry); format: cell-based, Human
# Description: (§1) Platelets release into the differentiated cultures was assessed via flow cytometry analysis of the supernatants. Specifically, the culture medium was collected and centrifuged at 150×g for 20 minutes to remove the nucleated cells. The supernatant was then centrifuged at 500×g for 20 minutes to pellet the platelets. Sediments containing platelets and platelet-like particles were resuspended in culture medium in 500 μl aliquots and labeled using anti-CD41-FITC. Cells were analyzed by FACScalibur for CD41 expression and log amplification of forward scatter (FCS) and side scatter (SSC).
# LAMA-84 derived PLPs = test: Aggregation of LAMA-84 derived platelet-like particles (AGGRAM aggregometer); format: cell-based, Human; conditions: PMA treated LAMA-84 culture-derived PLPs
# Description: Platelets and Platelet like particles generated from platelets-poor plasma e.g. LAMA-84 differentiated cells were tested for their functionality in aggregation assays using an AGGRAM aggregometer (Helena Laboratories, Beaumont, Tex.) according to the manufacturer's instructions using various agonists: adenosine diphosphate (ADP) (11 μM), arachidonic acid (AA) (1.6 μM), Epinephrine (50 μM), Ristocetin (1.6 mM) (Diamed AG, Morat, Switzerland) or collagen (5 μg/ml) (Helena Laboratories, Beaumont, Tex.).
# Livin, Survivin, XIAP = test: Western blot of IAP family proteins during LAMA-84 differentiation; format: cell-based, Human
# Description: Whole cell lysates were prepared from 0.25-1×10^6 cells using 100 μl lysis buffer [20 mM Tris-HCl, 2 mM EDTA, 6 mM β-Mercaptoethanol, 1% Nonidet P-40 (NP-40), 0.1% SDS and protease inhibitors] at 4° C. for 20 min, with vigorous vortex mixing. Antibodies used were: monoclonal antibody against Livin (clone 88C570) (Imgenex, USA) diluted 1:3000 and Survivin 6E4 monoclonal antibody (Cell Signaling Technology, USA), followed by Envision-HRP (DAKO, Denmark) as a secondary antibody; Polyclonal antibody against XIAP (Cell Signaling Technology, USA), followed by anti-rabbit IgG HRP-linked antibody (Cell Signaling Technology, USA) as a secondary antibody. For immunoprecipitation, equal amounts of protein lysates were pre-cleared with Protein A/G-Agarose (Santa Cruz, USA) together with 1 μg of mouse IgG. Livin was immunoprecipitated from the cleared lysates (using clone 88C570) and the immune complexes were precipitated with Protein A/G-Agarose.
# The expression of anti-apoptotic proteins of the […] (IAPs) during the differentiation of LAMA-84 cells towards MKs was analyzed by Western blot analysis. […] Note that in contrast to Livin, the level of Survivin decreased when cells were treated with PMA (FIG. 2E).
# LAMA-84 cells [2] = test: PMA-induced megakaryocytic differentiation of LAMA-84 cells (morphology, CD41/CD71 flow cytometry, PI ploidy); format: cell-based, Human
# Description: LAMA-84 cells were maintained in RPMI1640 containing 10% fetal calf serum, 100 U/ml penicillin, 100 μg/ml streptomycin and 2 mM glutamine. To induce differentiation, the cell culture was supplemented with 0.6-5 ng/ml PMA or 50 μM Hemin and cells were harvested and analyzed 1-5 days following treatment.
# (§2) To determine the extent of maturation toward MKs 1×10^6 cultured cells (LAMA-84 or CD34+ cells) were washed and then labeled with anti-CD41-FITC (GpIIb/IIIa, BD Bioscience, USA), or anti CD71-FITC or combination of anti-CD33-FITC, anti-CD41-PE, and CD34-APC (Beckman Coulter, USA) and analyzed using FACScalibur (Becton Dickinson, USA) for the percentage of CD41^+ cells generated.
# (§3) To determine the amount of ploidy, differentiated LAMA-84 cells were fixed overnight in 75% ethanol at 4° C., labeled with propidium iodide (PI, 50 μg/ml) and analyzed using FACScalibur. Fourteen day differentiated CD34+ were analyzed quantitatively under a microscope following May Grumwald/Giemsa staining for the number of nuclei per cell. Only cells with MK morphology were analyzed.
# LAMA-84 cell differentiation following PMA treatment was studied via morphological staining of the cells with May Grunwald/Giemsa and via flow cytometry analysis of CD41 (MK marker) and CD71 (erythroid marker) expression. Moreover, ploidy, a marker of MK differentiation, was also determined by flow cytometry using propidium iodide (PI). A range of PMA concentrations was tested and differentiation was obtained at 0.6-10 ng/ml PMA.
# [3] = tested on: platelets derived from CD34+ cultures; test: Platelet activation by CD62P expression, platelets from CD34+ cultures; format: cell-based, Human; conditions: platelets from over-expressing CD34+ cultures
# Description: Since the number of platelets generated from CD34+ cultures was low, platelets derived from these cultures were stimulated for 15 minutes at room temperature (RT) with ADP or AA and activation was assessed via flow cytometry analysis of CD62P (Pselectin)-PE (Beckman Coulter) expression (up regulation of CD62P implies activation).
# caspase-3 = test: Caspase-3 activity in LAMA-84 cell extracts (CaspACE colorimetric); format: cell-based, Human; conditions: day 4, PMA treated LAMA-84 stably over-expressing construct
# Description: Extracts from 1×10^6 cells were prepared by the freeze-thaw method assayed for caspase-3 activity using CaspACE™ Assay System, Colorimetric (Promega, USA), according to manufacturer's instructions.
# To address the mechanism of action of Livin in MKs differentiation, LAMA-84 cells were stably transfected to over-express Livin and the expression and effects of Livin protein during MKs differentiation were tested by means of Western blot analysis, caspase-3 activity, CD41 expression evaluated by flow cytometry and platelets functionality evaluated by aggregation assay (FIGS. 4A-4D). Specifically, control LAMA-84 cells (EV, empty vector) and LAMA-84 cells stably over expressing wild-type Livin or Livin mutant lacking pro-apoptotic activity (LivinRING) were treated with PMA for 5 Days. Cells were harvested at 12, 24, 48 and 96 hours for evaluation.
# Human CD34+ cells [4] = test: Megakaryocyte differentiation of cord blood CD34+ cells with SCF and TPO (CD41, CD33, nuclei number, Western blot); format: cell-based
# Description: Human CD34+ cells were cultured in Iscove's medium (IMDM) (1×10^5 cells/well) and induced to differentiate into MKs in the presence of 10 ng/ml stem cell factor (SCF) and 50 ng/ml thrombopoietin (TPO), freshly supplemented every 3 days. Cells were harvested and analyzed on day 14.
# 293T cells were infected to produce the virus and supernatant from 48 and 72 hours were infected into both LAMA-84 and CD34+ cells during their differentiation induction phase. In order to over-express Livin both LAMA-84 and CD34+ cells were infected following 1 day of differentiation with pWZL IRES-blasticidin vector expressing wild-type Livin (Livin β), LivinRING (Livin β RING), or empty vector (EV). For down-regulating expression of endogenous Livin, LAMA-84 were transfected by electroporation with pSUPER-Livin-2 (Livin siRNA) or pSUPER-luc (control siRNA) vectors^35 together with pWZL IRES-blasticidin 1 day following differentiation initiation. For down-regulating expression of endogenous Livin in CD34+ cells, cells were infected 1 day after differention with supernatant containing the pSUPER viruses generated by 293T cells.
# as §2, §3
# To investigate the effect of Livin on primary MK progenitors, human CD34+ cells isolated from cord blood samples, were transduced with Livin, LivinRING or control empty vector and grown for 14 days under MK differentiating conditions with the addition of stem cell factor (SCF) and thrombopoeitin (TPO)^41. At the terminal stages of primary MKs maturation CD34+ cell cultures were examined morphologically, analyzed for CD41 expression and polyploidy via flow cytomery, and Livin expression and cleavage via Western Blot.
# Human CD34+ cells [5] = test: CD41+ platelets released from differentiated CD34+ cultures (flow cytometry); format: cell-based; conditions: day 14, SCF and TPO
# Description: as §1
# The following experiments evaluated whether functional platelets were generated from the human CD34^+ cell cultures that were transduced with Livin, LivinRING or control empty vector and grown for 14 days under MK differentiating conditions with the addition of SCF and TPO. Platelets released into the media were characterized for CD41 expression and functionality by CD62P up regulation via flow cytometry.
molecule,measurement,setting,value
"CCCCCCCCCCCCCC(=O)O[C@@H]1[C@@H](C)[C@@]2(O)[C@@H](C=C(CO)C[C@]3(O)C(=O)C(C)=C[C@@H]23)[C@@H]2C(C)(C)[C@]12OC(C)=O [PMA, Phorbol myristate acetate]",Percentage of CD41+ PLPs released to culture medium,"LAMA-84 cells [1]; after incubation with PMA, untreated 6.5%±2.2%",24.3%±3.6%
same,"Aggregation of PLPs in response to Epinephrine, collagen, ADP",LAMA-84 derived PLPs,aggregated
same,Level of full length XIAP,"Livin, Survivin, XIAP; PMA differentiation, cleaved 30 kDa fragment appears",dose dependent significant decrease
same,Livin protein expression,"Livin, Survivin, XIAP; PMA-induced differentiation, not detected in untreated cells",up-regulated
same,Survivin level,"Livin, Survivin, XIAP; cells treated with PMA",decreased
same,Ploidy (PI flow cytometry),LAMA-84 cells [2]; 4 days of exposure to 5 ng/ml PMA,"underwent polyploidization (8N, 16N and 32N)"
same,CD41 expression (percent CD41 positive cells),"LAMA-84 cells [2]; 4 days, 5 ng/ml PMA, untreated 8.8%±5.6%",81.9%±10%
same,Morphology (May Grunwald/Giemsa),LAMA-84 cells [2]; LAMA-84 cells after PMA induction,marked increase in cell size and extensive multinuclearity
same,PMA concentration at which differentiation was obtained,"LAMA-84 cells [2]; LAMA-84 cells, range of PMA concentrations tested",0.6 to 10 ng/mL
Hemin,Levels of IAP family proteins tested,"Livin, Survivin, XIAP; Hemin negative control",did not regulate the levels
same,CD41 expression levels,"LAMA-84 cells [2]; Hemin, erythroid differentiation negative control",did not increase CD41 expression levels
B1,Number of CD41+ PLPs versus control (empty vector) cells,"LAMA-84 cells [1]; day 4, PMA treated LAMA-84 over-expressing construct",produced more PLPs
same,Platelet activity in response to arachidonic acid (CD62P up regulation),[3],demonstrated activity
same,Caspase-3 enzyme activity,caspase-3,induced caspase-3 activation
same,Cleavage of Livin (Western blot),"Livin, Survivin, XIAP; LAMA-84 over-expressing wild-type Livin, PMA, 96 h",underwent cleavage only at the terminal stage of differentiation
same,Increase in percentage of CD41 stained cells compared to empty vector,"Human CD34+ cells [4]; day 14, SCF and TPO, p=0.029",3.7±1 fold
same,CD33 expression of differentiated CD41+ cells,"Human CD34+ cells [4]; day 14, n=9, control cells 7.4±6.9%",22.6±39.8%
same,Multi-nucleated MKs (≥4 nuclei),"Human CD34+ cells [4]; day 14, versus LivinRING or empty vector (p=0.01 and 0.02)",significant increase
same,Livin and tLivin protein levels (Western blot),"Human CD34+ cells [4]; day 14, versus naive and empty vector CD34+ cultures",robust levels
same,Platelets produced (CD41+) compared to empty vector control,Human CD34+ cells [5],4.3±1 fold
